From patent publication US9744236B2, “Photolabile compounds” (The Trustees of Columbia University in the City of New York, priority 2009, dated 2017)
Where two headings read alike, the source gives them in different places.

Legend:
mouse cortical neuron = assay: Whole-cell patch-clamp of cortical neuron, perfusion; format: cell-based; conditions: 1 μM via perfusion
From the text: FIGS. 13A and 13B: FIG. 13A depicts the structure of TzGly. […] The measurement results were obtained by the whole-cell patch-clamp method, as known and used in the art.

[1] = Photouncaging quantum yield; format: physicochemical
Protocol: The photouncaging quantum yield measurements were performed with a Nd:YAG diode pumped solid state laser doubled to 473 nm with a constant power of 6.3 mW. The light was collimated and sent through an optical path of 1 cm into a fluorescence glass cuvette, with stirring. Total irradiation energy was measured using a Coherent Fieldmaster FM light meter with a visible light photodiode model SR45.
The quantum yield of rhodamine photorelease was calculated after the analysis of fluorescence emission data during photouncaging at 473 nm. A complete spectrum was obtained once per second. Absorption of light by the complex [Ru(bpy)2(RhodB-MAPN)Cl]^+ yields the aquo complex [Ru(bpy)2(H2O)Cl]^+ and free RhodB-MAPN. In each irradiation period the amount of aquo complex and free RhodB-MAPN generated is given by the following: δn=δtIφPU(1−10^−AbsT)AbsR/AbsT where δt is the irradiation period, I the light intensity in moles of photons per second, φPU is the quantum yield of photouncaging, AbsR is the absorbance of the photoactive species [Ru(bpy)2(RhodB-MAPN)Cl]^+ at 473 nm and AbsT is the total absorbance of the irradiated solution. By means of finite element calculation of the former equation a photouncaging quantum yield of φPU=0.12 at 25° C. was calculated. This value is in good agreement with the reported quantum yields for similar complexes. […]

[2] = Photorelease of TzGly from [Ru(bpy)2(TzGly)(py)]Cl2; format: physicochemical; conditions: 470 nm
[3] = tested on: Retzius (Rz) cells in the ganglion; assay: Intracellular voltage recording of leech ganglion neuron with light flash uncaging; conditions: for neuron spiking activity on addition, before light: ˜100 μM in saline, no flash; for neuron spiking activity after light flash: pulsed Xe lamp flash
Protocol: Hirudo medicinalis has a central nerve cord with several ganglia, each one containing about 400 neurons arranged in a known pattern. (W.-R. Schlue et al., 1980, J. Exp. Biol., 82:23-34). An entire ganglion was mounted on a dish. The transmembrane potential for a single cell (a neuron) in the ganglion was recorded by inserting inside the neuron a glass micropipet with a micrometer-sized end, filled with saturated aqueous KCl that acts as a luggin bridge for an Ag/AgCl electrode. Another Ag/AgCl electrode was used as a reference. The signal was taken with an AM-System 1600 amplifier, and the entire setup was covered with a Faraday cage. A 12 bit A/D acquisition card was used to digitize the data using an ad-hoc program written in QuickBasic.
Low Ca^2+-high Mg^2+ saline solution (NaCl, 102 mM; KCl, 4 mM; CaCl2: 1 mM; and MgCl2: 10 mM; Tris base, pH 5.4 adjusted to 7.4) was perfused through the dish. […] A pulsed Xe lamp located under the dish was used to irradiate the solution. UV light was removed using a band-pass filter at 500 nm.
After impaling the cell with an electrode, many experiments were performed on the same cell to ensure reproducibility. […] 300 seconds later, at 5500 s, a light flash was directed to the ganglion.

[4] = Photorelease of 4AP from [Ru(bpy)2(4AP)2]Cl2 under visible light (UV-vis, NMR); format: physicochemical
Protocol: (§1) UV-vis spectra in water were obtained with an HP 8453 diode array spectrophotometer. RMN ^1H spectra were obtained using a Bruker 500 MHz equipment. CV measurements were performed with a PAR 273A potentiostat. Irradiation was effected by means of a pulsed Xe lamp, (pulse energy ˜0.5 J), with a low-pass filter at 480 nm. Irradiation using a 473 nm DPSS laser gave similar results.
(§2) Several ruthenium polypyridyl complexes present this behavior. (D. V. Pinnick et al., 1984, Inorg. Chem., 23:1440-1445).
Although at pH 7 the spectrum of the irradiated complex is very similar to that of the original complex, a diminished shoulder at 470 nm becomes evident. To determine the nature of the photoreaction, NMR spectra were taken before and after irradiation with visible light. […] After irradiation, this signal decreased, and two new signals appeared at lower fields: one corresponding to the free ligand (m3), and the other corresponding to the aquo-4AP complex (m2), indicating photorelease of the 4AP. These two latter signals integrated for 0.30 and 0.27 of the initial signal, which corresponds to a photoreaction of 60%.
(§3) (See, e.g., E. S. Dodsworth et al., 1986, Chem. Phys. Lett., 124:152-158). The photoactivity of these compounds has been explained in terms of a reaction pathway that involves the transition between the MLCT state to a lower-energy d-d state, which promotes ligand release. There is a direct correspondence between the energy of the MLCT transition and the quantum yield of the photoreaction. For [Ru(bpy)2(4AP)CH3CN]^2+, the photoreaction yield is about φPR=0.4. Since [Ru(bpy)2(4AP)2]Cl2 presents a red-shifted band, a lower photoreaction yield is expected. An estimate based on early experiments leads to an estimate of φPR≅0.02 at 473 nm.

[5] = Photolysis of [Ru(bpy)2(PMe3)(MTG)]+2, UV-Vis; format: physicochemical
Protocol: A total of 67 mg of [Ru(bpy)2(PMe3)Cl]PF6 were suspended in 4 ml acetone and 2 ml water, and were heated and stirred at 80° C. until dissolution. Evaporated acetone was gradually replaced with water or acetone to keep total volume constant but avoiding precipitation. All the following was performed under dim red light. 100 mg of D(+)methylthiogalactose were added and the mixture was kept at 80° C. for 5 hours: The reaction progress was followed by UV-Vis spectrophotometry until the aquo complex was no longer detectable. The solution was cooled in ice-cold water and saturated [BPh4]^− as sodium salt was added carefully. The pale yellow precipitate was washed six times in ice cold water by resuspending the precipitate and centrifugation. NMR spectra were taken in a 500 MHz Bruker Avance II spectrometer. Photolysis of the NMR sample was performed inside the unopened NMR tube, by means of a custom-built NMR photolysis device based in 10 high current (100 mA) LEDs with emission wavelength centered at 520+/−20 nm.
The complex has a molar absorptivity coefficient of ˜3100 and a maximum absorption wavelength in the visible range at 422 nm. Photolysis quantum yield is 0.3. Successive photolysis products of the same sample are shown in black (FIG. 21).

E. coli culture = assay: Light-patterned uncaging of MTG in bacterial culture with X-Gal; format: cell-based; conditions: 1 mM complex, 0.02% X-Gal, 20 minutes irradiation, then 37° C.
Protocol: A handheld projector 3M (110 MPro) is used to irradiate for 20 minutes an E. coli culture growing in a piece of 7 cm diameter whatman filter paper soaked in LB medium containing 1 mM [(Ru(bpy)2P(Me)3(MTG)]^+2 and 0.02% X-Gal (FIG. 24A). After image projection, the culture is left at 37° C. for until blue precipitate is noticed (˜40 minutes, FIG. 24B).

[6] = Dark stability and recombination followed by UV-vis spectra; format: physicochemical
From the text: The photoproducts after exposure to light were Ru(bpy)2(4AP)(H2O) and free 4AP.
as §2

[7] = Cyclic voltammetry, redox potential; format: physicochemical; conditions: in water, versus Ag/AgCl
Protocol: as §1, §3
Its aqueous solutions present a strong metal to ligand charge-transfer band (MLCT band) at 450 nm, characteristic of this family of Ru polypyridines.

[8] = Fluorescence emission quantum yield before and after irradiation; format: physicochemical
From the text: All reagents were purchased from Sigma-Aldrich and used as received. Ru(bpy)2Cl2 was synthesized according to the literature using water as solvent (Viala, C.; Coudret, C. Inorg. Chim. Acta 2006, 359: 984-989). UV-vis spectra were taken with a HP8453 diode-array spectrometer. NMR spectra were obtained using a 500 MHz Bruker AM-500. Fluorescence emission measurements were made with a PTI Quantamaster spectrofluorometer, corrected for the instruments response function. Rhodamine B was used as fluorescence standard of emission quantum yield (φ=0.31 in aqueous solutions). Quantum yield of the complex was obtained directly from the ratio of the spectral areas, which present the same shape.
FIG. 20 depicts the emission spectra of the complex during irradiation. The maximum and the shape of the initial emission spectrum is the same as that of the free ligand RhodB-MAPN but the emission quantum yield is much lower, around pt=0.04. Quantum yields are easily calculated integrating the spectral areas. After irradiation with a 473 nm laser, RhodB-MAPN is released and the solution increases its fluorescence up to 6 fold, to φt=0.24.

NC(C(=O)O)c1nnn[nH]1 (racemic) [TzGly, (RS)-(tetrazol-5-yl)glycine]
effect on neuron (mouse cortical neuron): spiking

C=CCC#N.[Cl][Ru+].c1ccc(-c2ccccn2)nc1.c1ccc(-c2ccccn2)nc1 [[Ru(bpy)2(VACN)Cl]^+]
photouncaging quantum yield φPU (VACN release) [1]: 0.21

[Ru(bpy)2(TzGly)(py)]Cl2
photorelease on irradiation [2]: photoreleased TzGly

[Cl][Ru][Cl].c1ccc(-c2ccccn2)nc1.c1ccc(-c2ccccn2)nc1.c1ccc(-c2ccccn2)nc1 [Ru(bpy)3Cl2, reference compound]
neuron spiking activity on addition, before light [3]: without significant changes in activity
neuron spiking activity after light flash ([3]; ˜100 μM): after a short time the activity decreased to the basal level

CC#N.Nc1ccncc1.[Ru+2].c1ccc(-c2ccccn2)nc1.c1ccc(-c2ccccn2)nc1 [[Ru(bpy)2(4AP)CH3CN]^2+]
photoreaction yield φPR [4]: ~0.4

CP(C)C.CS[C@@H]1O[C@H](CO)[C@H](O)[C@H](O)[C@H]1O.[Ru+2].c1ccc(-c2ccccn2)nc1.c1ccc(-c2ccccn2)nc1 [[Ru(bpy)2(PMe3)(MTG)]^+2]
photolysis quantum yield [5]: 0.3
time until blue precipitate is noticed (E. coli culture): ~40 min

Nc1ccncc1.Nc1ccncc1.[Cl-].[Cl-].[Ru+2].c1ccc(-c2ccccn2)nc1.c1ccc(-c2ccccn2)nc1 [[Ru(bpy)2(4AP)2]Cl2]
extent of photoreaction (NMR signal integration) ([4]; after irradiation with visible light): 60%
photoreaction yield φPR ([4]; at 473 nm, estimate based on early experiments): ~0.02
time without dark decomposition ([6]; in the dark): more than 20 hours
4AP recombination ([6]; irradiated solution, after 7 hours in the dark): less than 4%
stability in the dark ([6]; water): stable in the dark
redox potential of the couple R^III/R^II [7]: 0.76 V
toxicity on the neuron ([3]; during the experiments): Neither toxicity nor a deleterious effect was observed
neuron spiking activity on addition, before light [3]: the activity remained unchanged
neuron spiking activity after light flash ([3]; ˜100 μM): sudden activity was recorded and it remained high after 300 s
neuron spiking activity after second light pulse ([3]; ˜100 μM, second light pulse at 6750 s): even higher activity

CCN(CC)c1ccc2c(-c3ccccc3C(=O)N(C)CCC#N)c3ccc(=[N+](CC)CC)cc-3oc2c1.[Cl][Ru+].c1ccc(-c2ccccn2)nc1.c1ccc(-c2ccccn2)nc1 [[Ru(bpy)2(RhodB-MAPN)Cl]^+]
increase of fluorescence ([8]; after blue light (473 nm) irradiation): up to 6 fold
emission quantum yield ([8]; after irradiation with a 473 nm laser): 0.24
emission quantum yield ([8]; aqueous, before irradiation): ~0.04
photouncaging quantum yield φPU ([1]; 473 nm, 25° C.): 0.12
